Assays:
Vrg4 liposomes = assay type: biochemical; settings: liposome assays, GDP-mannose versus GMP as antiport substrate
[1] = system: NDY5 yeast containing an empty yEP181 vector; assay: Hygromycin B-based in vivo viability (growth) assay; assay type: cell-based, Saccharomyces cerevisiae
Protocol: The yeast was grown in minimal media to select for the plasmids, and the expression of the nanobody was induced with galactose. After overnight galactose induction, the yeast culture was diluted, and growth was monitored over 30 h.
An overnight culture was grown in minus -Leu-Ura medium containing 2% glucose and then diluted 1:10 into medium containing 2% lactate. After 9 h of growth, 2% galactose was added, and the cultures were left overnight. […] The cultures were grown at 30 °C with shaking, and growth was monitored over the next 30 h by measuring the OD.

SMILES | Transport rate as antiport substrate, in words (Vrg4 liposomes) | Growth / sensitivity to hygromycin B, in words [1]
Nc1nc2c(ncn2[C@@H]2O[C@H](COP(=O)(O)OP(=O)(O)O[C@H]3O[C@H](CO)[C@@H](O)[C@H](O)[C@@H]3O)[C@@H](O)[C@H]2O)c(=O)[nH]1 [GDP-mannose] | faster transport rates and greater overall uptake | –
CN[C@H]1C[C@@H](N)[C@H](O)[C@@H](O[C@@H]2O[C@H](CO)[C@H](O)[C@@H]3OC4(O[C@H]23)O[C@H]([C@@H](N)CO)[C@H](O)[C@H](O)[C@H]4O)[C@@H]1O (some centres unmarked) [hygromycin B] | – | sensitive
